Columns and labels:
pERK in A549 (KRAS-G12S) = assay: Cell-based pERK dose response / phospho-ERK screen in A549; design: species or system Human; settings: for pERK: total ERK (% relative to vehicle): A549 (KRAS G12S), 10 μM for 2 hours
Procedure: Materials and Methods: A549 or A375 cells were seeded in 6-well plates at an appropriate seeding density on day 0. On day 2 or 3, after checking the health and confluency of cells, the media was aspirated and replaced with 1 mL media containing a predetermined concentration of compound and incubated for 2 hours. After 2 hours, the media was aspirated, and the cells washed 2 times with cold PBS. Cells were lysed on ice, with 50 μL 1× CST lysis buffer+1 mM PMSF for 5 minutes. After 5 minutes, cells were removed using a scraper and transferred to cold 1.5 mL tubes, and centrifuged for 10 min, 4° C., 14,000×g. Supernatant was gently removed and snap frozen in liquid nitrogen. Protein concentration of the lysate was determined using Bradford Reagent (analyzed using SpectraMax M2E) and diluted to 1 mg/mL or pERK or 1.5 mg/mL for pMEK analysis. […] All dilutions were in Milk-free antibody diluent.

[1] = Preclinical xenograft tumor models, summary (tolerability, effective dose); assay type: in vivo, mice; settings: at top doses
[2] = Plasma Stability (% remaining @2 hour); assay type: in vitro ADME; settings: Human; 2 μM
[3] = Microsome Stability (% remaining @1 hour); assay type: in vitro ADME; settings: Beagle Dog; 2 μM
CYP450 2C8 = target: T1, CYP450 2C8 (Homo sapiens, UniProt P10632); assay: CYP450 Panel; assay type: in vitro ADME; settings: 10 μM; substrate amodiaquine
T1 sequence (P10632 1-490): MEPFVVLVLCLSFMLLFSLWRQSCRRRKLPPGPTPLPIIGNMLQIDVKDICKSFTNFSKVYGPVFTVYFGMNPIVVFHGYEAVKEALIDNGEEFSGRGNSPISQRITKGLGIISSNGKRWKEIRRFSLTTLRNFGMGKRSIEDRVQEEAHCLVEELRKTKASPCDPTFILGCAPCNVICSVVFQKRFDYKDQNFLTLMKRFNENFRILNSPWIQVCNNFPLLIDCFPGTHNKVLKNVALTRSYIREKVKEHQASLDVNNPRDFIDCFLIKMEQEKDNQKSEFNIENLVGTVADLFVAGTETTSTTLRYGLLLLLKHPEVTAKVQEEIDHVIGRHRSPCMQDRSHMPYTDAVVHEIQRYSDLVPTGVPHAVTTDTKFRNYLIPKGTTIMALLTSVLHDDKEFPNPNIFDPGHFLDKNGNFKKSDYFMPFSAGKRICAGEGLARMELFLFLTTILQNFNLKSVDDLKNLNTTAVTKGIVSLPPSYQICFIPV

CYP450 2C19 = CYP450 2C19 (Homo sapiens, UniProt P33261); assay: CYP450 Panel; assay type: in vitro ADME; settings: 10 μM; substrate mephenytoin; in % (unit assumed)
CYP450 3A4 = CYP450 3A4 (Homo sapiens, UniProt P08684); assay: CYP450 Panel; assay type: in vitro ADME; settings: 10 μM; for CYP450 Panel 3A4 (midazolam): substrate midazolam; for CYP450 Panel 3A4 (testosterone): substrate testosterone
[4] = eLogD (lipophilicity; pH=7.4); assay type: physicochemical
Procedure: Test compounds were dissolved in DMSO at a concentration of 10 mM and further diluted with methanol:water 1:1. Samples were analyzed using gradient HPLC with three different isocratic mobile phases of 0.25% octanol in methanol (60, 65 and 70%) and 20 mM MOPS buffer (pH 7.4) with decylamine. If needed, (for low E log Doct compounds) the isocratic mobile phases were adjusted to e.g. 40, 45 and 50% methanol. Peaks were detected using a diode array at absorbance 220-320 nm.
Capacity factors data (k′_(tr−_t0)/t0) obtained at various amounts of methanol were extrapolated to 0% methanol and k′w values are determined using a linear procedure. E log Doct (7.4) is calculated using a series of reference standards with known Log D values. Each experiment was performed in triplicate.

CYP450 2B6 = target: T2, CYP450 2B6 (Homo sapiens, UniProt P20813); assay: CYP450 Panel; assay type: in vitro ADME; settings: 10 μM; substrate bupropion
T2 sequence (P20813 1-491): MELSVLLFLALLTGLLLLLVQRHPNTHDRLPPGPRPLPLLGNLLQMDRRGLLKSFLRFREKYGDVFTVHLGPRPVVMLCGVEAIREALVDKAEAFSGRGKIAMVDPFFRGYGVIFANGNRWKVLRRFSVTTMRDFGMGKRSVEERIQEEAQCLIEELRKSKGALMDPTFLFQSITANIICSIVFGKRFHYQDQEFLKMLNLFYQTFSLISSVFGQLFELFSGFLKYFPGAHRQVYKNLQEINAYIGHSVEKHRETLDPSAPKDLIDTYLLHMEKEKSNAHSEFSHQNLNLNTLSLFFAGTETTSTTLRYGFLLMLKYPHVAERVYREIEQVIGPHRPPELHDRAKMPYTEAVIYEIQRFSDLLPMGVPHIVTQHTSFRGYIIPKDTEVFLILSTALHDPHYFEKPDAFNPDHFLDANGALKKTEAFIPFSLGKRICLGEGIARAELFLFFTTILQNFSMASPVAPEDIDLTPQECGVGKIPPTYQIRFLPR

pERK = assay: Phase 1/2a clinical trial: PD, A549 cells exposed to patient plasma, p/t-ERK; assay type: cell-based, human
Procedure: PK plasma: pre-dose (0), 0.5, 1, 1.5, 2*, 4, 6, 8, 24 hours; PD plasma: PK-matched without 0.5 or 1.5 hours (*poor sample quality for Pt.4 at 2 hour)
PD method: A549 (KRASG12S) cells were exposed to patient plasma for 2-hours before quantifying phosphorylated and total ERK and MEK

[5] = Tissue pharmacokinetics in Colon-26 tumor bearing mice, 2-hour post dose; assay type: in vivo; settings: single dose 100 mg/kg p.o.
Procedure: Female mice (either athymic BALC/c nude, or BALB/c mice) were inoculated with a single subcutaneous injection of 0.2 ml of mouse Colon-26 cell suspension (1×10^5 cells per animal) in the inguinal region. Colon26 (C26) tumor bearing mice received a single dose (3 mice/treatment) of vehicle (10% DMSO/90% [20% SBE-R-CD in saline], pH 5) containing compounds at 100 mg/kg by gavage (p.o.) and 2-hour post dose humanely euthanized.
Blood was obtained through cardiac puncture into K+EDTA tubes, mixed by inversion and centrifuged to obtain the plasma. Tissues were excised, cleaned of surrounding tissues. All samples immediately snap frozen in liquid N2 prior to LC-MS/MS analysis (using Waters HSS T3 2.1×50 mm (1.8 um) LC column, and an API-6500 Electrospray MS unit).

[6] = Microsome Stability (% remaining @1 hour); assay type: in vitro ADME; settings: Human; 2 μM

CYP450 3A4, sequence (P08684 whole entry): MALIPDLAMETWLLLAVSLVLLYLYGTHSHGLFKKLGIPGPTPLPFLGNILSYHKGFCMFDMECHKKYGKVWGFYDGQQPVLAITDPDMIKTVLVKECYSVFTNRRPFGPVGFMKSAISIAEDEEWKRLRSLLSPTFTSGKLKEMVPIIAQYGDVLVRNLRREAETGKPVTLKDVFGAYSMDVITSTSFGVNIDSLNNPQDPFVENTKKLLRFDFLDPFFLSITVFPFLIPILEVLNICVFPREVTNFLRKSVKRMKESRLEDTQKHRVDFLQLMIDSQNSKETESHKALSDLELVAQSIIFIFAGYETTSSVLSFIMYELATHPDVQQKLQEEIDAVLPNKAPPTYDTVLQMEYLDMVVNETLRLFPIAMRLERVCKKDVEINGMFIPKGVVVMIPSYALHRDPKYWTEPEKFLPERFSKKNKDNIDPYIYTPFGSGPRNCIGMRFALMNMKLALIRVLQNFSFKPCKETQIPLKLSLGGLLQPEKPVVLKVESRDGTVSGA
CYP450 2C19, sequence (P33261 whole entry): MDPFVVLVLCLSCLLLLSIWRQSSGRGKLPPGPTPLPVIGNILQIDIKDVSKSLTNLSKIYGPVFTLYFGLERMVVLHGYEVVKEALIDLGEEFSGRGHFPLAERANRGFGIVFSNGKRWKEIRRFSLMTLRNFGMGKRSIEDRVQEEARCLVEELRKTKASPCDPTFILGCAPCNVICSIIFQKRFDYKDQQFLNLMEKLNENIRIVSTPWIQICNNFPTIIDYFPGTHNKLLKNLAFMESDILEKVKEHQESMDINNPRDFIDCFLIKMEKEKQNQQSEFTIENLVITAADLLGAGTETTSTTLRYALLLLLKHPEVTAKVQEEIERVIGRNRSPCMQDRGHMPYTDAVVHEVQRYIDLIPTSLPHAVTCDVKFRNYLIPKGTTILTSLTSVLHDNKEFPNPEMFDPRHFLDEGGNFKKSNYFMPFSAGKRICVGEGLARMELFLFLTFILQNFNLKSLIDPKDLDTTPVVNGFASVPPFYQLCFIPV

CNS(=O)(=O)Nc1cccc(Cc2c(CN(C)C)c3ccc(OC(=O)N(C)C)cc3oc2=O)c1F [Compound A, 4-((dimethylamino)methyl)-3-(2-fluoro-3-((N-methylsulfamoyl)amino)benzyl)-2-oxo-2H-chromen-7-yl dimethylcarbamate]
IC50 (pERK in A549 (KRAS-G12S); Homo sapiens, A549, 2 hr incubation, read-out: pERK IC50 (A549) [12-point dose]): 19.8 nM
median body weight loss [1]: 3-6 % of baseline
Plasma stability, % Remaining @2 hour [2]: 95.1%
Microsome stability, % Remaining @1 hour [3]: 76.5%
CYP450 Panel 2C8 (CYP450 2C8): 4%
CYP450 Panel 2C19 (CYP450 2C19): 8.2
CYP450 Panel 3A4 (midazolam) (CYP450 3A4): 16.3%
CYP450 Panel 3A4 (testosterone) (CYP450 3A4): 26.8%
chromatographic logD [4]: 3
eLogD (lipophilicity; pH = 7.4) [4]: 3.0
CYP450 Panel 2B6 (CYP450 2B6): 14.8%
pharmacodynamic inhibition of pERK (pERK; initial phase 1/2a clinical data): ~ 90%
reduction p/t-ERK (pERK; patients 3 and 4, 160 mg QD po, C1D1): 87-92%
Liver concentration [5]: 1260 ng/g
Muscle concentration [5]: 363 ng/g
Plasma concentration [5]: 407 ng/mL
Tumor concentration [5]: 1350 ng/g
Microsome stability, % Remaining @1 hour [6]: 51.7%

Cn1cnc2c(F)c(Nc3ccc(Br)cc3Cl)c(C(=O)NOCCO)cc21 [Reference 1, Selumetinib]
pERK: total ERK (% relative to vehicle) (pERK in A549 (KRAS-G12S); Table 8A): 0.48%
pERK: total ERK (% relative to vehicle) (pERK in A549 (KRAS-G12S); Table 8B): 2.40%
Plasma stability, % Remaining @2 hour [2]: 98.1%
Microsome stability, % Remaining @1 hour [3]: 97.5%
CYP450 Panel 2C8 (CYP450 2C8): 18.9%
CYP450 Panel 2C19 (CYP450 2C19): 13.9
CYP450 Panel 3A4 (midazolam) (CYP450 3A4): 25.9%
CYP450 Panel 3A4 (testosterone) (CYP450 3A4): 21.4%
eLogD (lipophilicity; pH = 7.4) [4]: 3.6
CYP450 Panel 2B6 (CYP450 2B6): 30.2%
Microsome stability, % Remaining @1 hour [6]: 75.8%

Reference: patent publication US20260256738A1, “METHODS OF TREATING CANCER WITH A RAS MUTATION” (Immuneering Corporation, priority 2023, published 2026)
